Experiment [1] has as its system tau. The experiment in a line: Tau level reduction in HeLa cells stably transfected with tau treated with myricanol derivatives. Conditions: for reduction of levels of tau proteins: summary statement. Type of experiment: cell-based. As for the experimental part: To assess the effects of the aqueous bayberry extract on overexpressed and endogenous tau levels, HeLa cells stably transfected with tau were treated with the myricanol derivatives.

The subject of experiment [2] is tau. The experiment in a line: Tau-reducing-guided fractionation study of Myrica cerifera (tau destabilizer activity). Conditions: read-out: IC50 as tau destabilizer agent. The experiment is classed as cell-based. As for the experimental part:
The bayberry root-bark powder (5×1 kg) was extracted with 5×2 L of toluene under agitation in a (5×) flask protected from light (3×24 h). The filtrate was concentrated and gave 58 g of extract. The toluene extract was purified using silica gel MPLC, eluting with a gradient of 0 to 40% ethyl acetate/hexanes to yield 27 g of (+)-aR,11S-myricanol [α]D^21=48.2 (c=1.1, Chloroform).

Where [3] appears, read: HeLa cells stably transfected with tau.
Setting [4] is: Table 1, tau-reducing activity, result in words.

For `COc1cc2c(c(O)c1OC)CCCC1CCCc3ccc(O)c-2c31` (stereo not drawn) [Compound 23], the Results entry in the experiment on tau [1] (setting [3]) and with tau [1] (setting [4]) was “very active” throughout. Besides, the “reduction of levels of tau proteins” value in the experiment on tau [1] is listed as “potently reduce levels of tau proteins”. Further, the “reduction of protein tau levels, time-dependent bioassay” value with tau [1] (treatment of HeLa cells for 24 hours) is “potently reduces protein tau levels”.

For `CCCCCCCCC[C@H](O)CC(=O)CCc1ccc(O)c(OC)c1` [Compound 11, [10]-Gingerol], the Results entry is “active” in the experiment on tau [1] (setting [3]) and “Active” in the experiment on tau [1] (setting [4]).

For `COc1c2cc(c(O)c1OC)CCCC[C@H](O)CCc1ccc(O)c-2c1` [Compound 1, Myricanol], in the experiment on tau [2], the half-maximal inhibitory concentration (IC50) (in general, the point on the concentration scale where inhibition reaches its midpoint) is 35 µM. For the same molecule, in the experiment on tau [1] (setting [4]), the Results result is “moderate activity”.

`COc1c2cc(c(O)c1OC)CCCC/C=C\Cc1ccc(O)c-2c1` [Compound 22, Myricacene B (cis)]: the Results entry with tau [1] (setting [3]) and with tau [1] (setting [4]) was “active” in each case. Further, the “tau-reducing activity, dose-dependent bioassay” value in the experiment on tau [1] (concentration of 20 μg/mL) is “potent tau-reducing compound”. In addition, the “reduction of levels of tau proteins” value in the experiment on tau [1] is “potently reduce levels of tau proteins”.

For the molecule Demethoxycurcumin [Compound 9], the Results result in the experiment with tau [1] (setting [3]) and with tau [1] (setting [4]) was “active” in each case.

For `O=C(/C=C/c1ccc(O)cc1)CC(=O)/C=C/c1ccc(O)cc1` [Compound 10, Bisdemethoxycurcumin], the Results entry with tau [1] (setting [3]) and with tau [1] (setting [4]) was “active” in each case.

As for `COc1c2cc(c(O)c1OC)CCC/C=C/CCc1ccc(O)c-2c1` [Compound 18, Myricacene A (trans)], the Results entry in the experiment with tau [1] (setting [3]) and with tau [1] (setting [4]) was “active” throughout.

Turning to `COc1c2cc(c(O)c1OC)CCCC/C=C/Cc1ccc(O)c-2c1` [Compound 19, Myricacene B (trans)], the Results result with tau [1] (setting [3]) and in the experiment with tau [1] (setting [4]) was “active” in each case.

`COc1c2cc(c(O)c1OC)CCC/C=C\CCc1ccc(O)c-2c1` [Compound 21, Myricacene A (cis)]: the Results result in the experiment with tau [1] (setting [3]) and in the experiment on tau [1] (setting [4]) was “moderately active” each time.

`COc1c2cc(c(O)c1OC)CCCCC1CCc3ccc(O)c-2c31` (stereo not drawn) [Compound 24]: the Results entry in the experiment on tau [1] (setting [3]) and in the experiment with tau [1] (setting [4]) was “active” each time.

Values taken from patent US10358405B2, “Myricanol derivatives and uses thereof for treatment of neurodegenerative diseases” (UNIVERSITY OF SOUTH FLORIDA, priority 2012, dated 2019).
